Experimental data: patent US9359281B2, “Enantiomers of 2-hydroxy derivatives of fatty acids” (UNIVERSITAT DE LES ILLES BALEARS, priority 2011, dated 2016)

tested on: A549 cells; assay: Cell growth inhibition, A549; type: cell-based, human; conditions: A549, sodium salt form
Source text: At this respect, concentrations which inhibit growth of tumour cells (IC50) are lower for the enantiomer S ([−]) in all studied tumour lines (Table 5). […] In all of the cases, the molecules employed were in the form of sodium salt.

| IC50 [µM] | Structure (SMILES) |
| --- | --- |
| 155 ± 7.5 | CCCCC/C=C\C/C=C\C/C=C\CCCC(O)C(=O)O (stereo not drawn) [[−]2OH18:3g] [2-hydroxy-γ-linoleic acid] |
| 219 ± 15.4 | CC/C=C\C/C=C\C/C=C\CCCCCCC(O)C(=O)O (racemic) [Racemic 2OH18:3a, 2-hydroxy-α-linoleic acid] |
| 299 ± 34.2 | CCCCCC/C=C\CCCCCCC(O)C(=O)O (stereo not drawn) [[+]2OH16:1] [2-hydroxypalmitoleic acid] |
| 186 ± 21.9 | CCCCC/C=C\C/C=C\CCCCCCC(O)C(=O)O (stereo not drawn) [[+]2OH18:2] [2-hydroxylinoleic acid] |
| 69.9 ± 11.2 | CCCCC/C=C\C/C=C\CCCCCCC(O)C(=O)O (stereo not drawn) [[−]2OH18:2] [2-hydroxylinoleic acid] |
| 110 ± 14 | CCCCCC/C=C\CCCCCCC(O)C(=O)O (stereo not drawn) [[−]2OH16:1] [2-hydroxypalmitoleic acid] |
| 342 ± 31.5 | CCCCC/C=C\C/C=C\C/C=C\CCCC(O)C(=O)O (stereo not drawn) [[+]2OH18:3g] [2-hydroxy-γ-linoleic acid] |
| 206 ± 21.7 | CCCCC/C=C\C/C=C\C/C=C\CCCC(O)C(=O)O (racemic) [Racemic 2OH18:3g, 2-hydroxy-γ-linoleic acid] |
| 351 ± 22.7 | CC/C=C\C/C=C\C/C=C\CCCCCCC(O)C(=O)O (stereo not drawn) [[+]2OH18:3a] [2-hydroxy-α-linoleic acid] |
| 146 ± 10.9 | CC/C=C\C/C=C\C/C=C\CCCCCCC(O)C(=O)O (stereo not drawn) [[−]2OH18:3a] [2-hydroxy-α-linoleic acid] |

same assay, conditions: Homo sapiens, A549, A549, sodium salt form

| IC50 [µM] | Structure (SMILES) |
| --- | --- |
| 105 ± 4.1 | CCCCC/C=C\C/C=C\CCCCCCC(O)C(=O)O (racemic) [Racemic 2OH18:2, 2-hydroxylinoleic acid] |
| 193 ± 9.3 | CCCCCC/C=C\CCCCCCC(O)C(=O)O (racemic) [Racemic 2OH16:1, 2-hydroxypalmitoleic acid] |
